Experimental findings from PubChem BioAssay (NCI) are described below.

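Step 1: Grow cells in 96-well plates. Step 2: Expose to compound for 48 hours at 5 concentrations. Step 3: Interpolate endpoints linearly; if unreached, use highest concentration. Abbreviation: GI50, concentration required for 50% inhibition of growth. Definition used: TGI = concentration required for complete inhibition of growth.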

Holding throughout (test): growth of human tumour cells (NCI), 48 h
Test [1] has as its system SK-MEL-28 melanoma.
Test [2] relates to OVCAR-8 ovarian.
The subject of test [3] is SNB-75 CNS.
Test [4] has as its system RPMI-8226 leukemia.
Test [5] relates to SF-539 CNS.
The subject of test [6] is M14 melanoma.
For test [7], the system named is SF-295 CNS.
The subject of test [8] is HCT-15 colon.
For test [9], the system named is A498 renal.
For test [10], the system named is NCI/ADR-RES ovarian.

For the molecule `C=C(C)[C@@H]1CCC2=C[C@H](CC(C)=CC3=CC(C)=C(O3)[C@@H]1OC)OC2=O`, the TGI in test [1], in test [2], in [3], in [4], in [5] and in test [6] was over 100 µM each time. Also, the TGI in [7] is 70.5 µM; in test [8] it was over 100 µM; in test [9] it was over 100 µM; in test [10] it was over 100 µM.

On to `O=C1CCCC2=C1CC1=C(CCCC1=O)N2c1ccccc1`, for which the TGI in test [1], in [2], in test [3], in test [4], in [5] and in test [6] was over 100 µM in each case. The TGI in [8], in [9] and in test [10] was over 100 µM in each case.

Turning to `NC(=O)c1nnsc1NC=O`, the TGI in test [1], in [2], in test [3], in test [4], in [6] and in test [7] was over 100 µM each time. The TGI in test [8], in test [9] and in [10] was over 100 µM in each case.

`O=C(OCc1ccccc1)N1CCN(C(=O)OCc2ccccc2)CCN(C(=O)OCc2ccccc2)CCN(C(=O)OCc2ccccc2)CCN(C(=O)OCc2ccccc2)CC1`: the TGI in [1] is over 100 µM; in [2], over 100 µM; in test [3] it was 96.6 µM; in test [5] it was over 100 µM; in test [6], over 100 µM; in [7], over 100 µM. In addition, the TGI in test [8], in test [9] and in test [10] was over 100 µM throughout.

For `COC(=O)c1ccccc1C1CN=NC12Cc1cccc(C)c1C2=O` (configuration not stated), the TGI in [1], in test [2], in [3], in test [4], in test [5] and in [7] was over 100 µM each time. Besides, the values for the TGI in test [8], in test [9] and in [10] were over 100 µM, over 100 µM and 45.7 µM, respectively.

`CC1(CC2=C(C(=O)NCCO[Si](C)(C)C(C)(C)C)C3(OCCO3)C2=O)OCCO1`: the TGI in [1], in test [2], in test [3], in test [5], in test [6] and in test [7] was over 100 µM in each case. The TGI in [8], in [9] and in test [10] was over 100 µM in each case.

In the case of `CC(=O)NC(Cc1ccc(OP(=O)(OCc2ccc([N+](=O)[O-])o2)N(C)CCCCCl)cc1)C(=O)NC(C)c1ccc(OCC2CCCCC2)c(C(N)=O)c1` (configuration not stated), the TGI in test [1] is 4.08 µM; in test [2] it was 21.8 µM; in test [4], 3.96 µM; in [5] it was 4.35 µM; in [6] it was 5.49 µM; in test [7], 16.9 µM. The TGI in test [8] was over 100 µM; in test [9], 35.4 µM; in test [10], over 100 µM.

As for `CC(=O)O[C@H]1C[C@H]2C(=S)Nc3ccccc3C(=S)N2C1`, the TGI in test [1], in test [2], in test [3], in test [4], in test [6] and in test [7] was over 100 µM each time. For the same molecule, the TGI in test [8], in [9] and in test [10] was over 100 µM in each case.

`Cc1ccc(S(=O)(=O)NC(=O)NC(Cc2ccc(O)c(O)c2)C(=O)O)cc1` (configuration not stated): the TGI in [1], in test [2], in test [4], in [6], in [7] and in [8] was over 100 µM throughout. In addition, the TGI in [9] and in [10] was over 100 µM each time.

In the case of `Nc1ccc(Oc2ccc(C34CC5CC6C3CC3CC4C(C5)C6(c4ccc(Oc5ccc(N)c(O)c5)cc4)C3)cc2)cc1O`, the TGI in test [1] was 23.6 µM; in test [2], over 46.7 µM; in test [4] it was 7.94 µM; in [5], 0.652 µM; in test [6] it was 8.71 µM; in test [7], 15.3 µM. Besides, the results for the TGI in [8], in [9] and in test [10] were 25 µM, 20.4 µM and over 92.8 µM, respectively.

For the molecule `COc1ccc(Oc2nc(C#CC(C)(C)O)nc(Oc3ccc(OC)cc3)n2)cc1`, the TGI in [1] amounted to 18.9 µM; in [2], 13.7 µM; in test [3] it was 31.3 µM; in test [5], 22.5 µM; in [6], 4.24 µM; in [7] it was 31.2 µM. Moreover, the values for the TGI in test [8], in test [9] and in [10] were 2.95 µM, 31.6 µM and 46.8 µM, respectively.

As to `Oc1cccc(-c2cn3cc(C(F)(F)F)ccc3n2)c1`, the TGI in [1] was over 100 µM; in test [2] it was over 100 µM; in [6], over 100 µM; in [7], 94 µM; in test [8], over 100 µM; in test [9], over 100 µM. Further, the TGI in test [10] came to 78.1 µM.

With `c1ccc2nc(CCC3CCCCN3)ccc2c1` (configuration not stated), the TGI in test [1], in test [2], in test [3], in [4], in [6] and in test [7] was over 100 µM each time. The TGI in test [8], in test [9] and in [10] was over 100 µM each time.

On to `O=[N+]([O-])c1ccc2c(c1)c(S(=O)(=O)O)cc1nonc12`, for which the TGI in test [1], in test [2], in [4], in [5], in test [6] and in test [7] was over 100 µM in each case. Moreover, the TGI in test [8], in [9] and in test [10] was over 100 µM throughout.

For `Oc1ccc(C#CCOc2ccccc2)cc1CNCCN(Cc1ccccn1)Cc1ccccn1`, the GI50 was 2.04 µM in [1]; 1 µM in test [2]; 1.24 µM in test [3]; 1.53 µM in [4]; 1.6 µM in test [5]; 0.552 µM in test [7]. Besides, the GI50 in test [8] is 1.13 µM; in test [9] it was 1.19 µM; in test [10], 1.83 µM. Further, the TGI in test [1] turned out to be 5.91 µM; in test [2] it was 6.55 µM; in [3], 4.13 µM; in test [4], 6.2 µM; in [5], 3.09 µM; in [7], 1.89 µM. Also, the TGI in test [8] turned out to be 3.55 µM; in test [9] it was 2.44 µM; in [10] it was 6.68 µM.

On to `CC(NC(C#N)CC12CC3CC(CC(C3)C1)C2)c1ccccc1` (configuration not stated), for which the TGI in test [1] was over 100 µM; in [2], over 100 µM; in test [4], 44 µM; in test [6] it was over 100 µM; in test [7], over 100 µM; in test [8] it was over 100 µM. Further, the TGI in [9] and in test [10] was over 100 µM throughout.

As to `CC(=O)/C=C(\O)c1[nH]c(C(=O)O)cc1C1CCN(Cc2ccccc2)C1=O` (configuration not stated), the TGI in test [1] came to 43.8 µM; in [2], 36.4 µM; in test [3] it was 63.1 µM; in test [4], 49 µM; in test [6] it was 29.6 µM; in [7], 48.7 µM. For the same molecule, the TGI in test [8] is 38.4 µM; in test [9], over 100 µM; in test [10], 28.9 µM.

With `O=C(OCCC12CC3CC(CC(C3)C1)C2)c1ccc(NCc2cc(O)ccc2O)cc1`, the TGI in test [1] was 2.24 µM; in [3], 2.99 µM; in test [4] it was 0.666 µM; in test [5], 2.08 µM; in test [6] it was 3.37 µM; in test [7] it was 5.25 µM. Moreover, the values for the TGI in test [8], in [9] and in test [10] were 3.53 µM, 4.83 µM and 11.1 µM, respectively.

Consider `CC(=O)OCC1OC(O/C=C(\CN=[N+]=[N-])C(C)=O)C(OC(C)=O)C(OC(C)=O)C1OC(C)=O` (configuration not stated), for which the TGI was 89.7 µM in test [1]; over 100 µM in test [2]; 33.3 µM in [3]; 5.18 µM in test [4]; 23.1 µM in test [6]; over 100 µM in test [7]. Further, the TGI in test [8] was 18.9 µM; in test [9], 47.5 µM; in [10], over 100 µM.

For the molecule `NS(=O)(=O)c1nnc(NS(=O)(=O)c2ccccc2C(=O)O)s1`, the TGI in test [1], in test [2], in test [4], in test [6], in [7] and in test [8] was over 100 µM throughout. Besides, the TGI in test [9] and in [10] was over 100 µM each time.

As to `c1ccc2c(c1)CC1COc3ccccc3C1O2` (configuration not stated), the TGI in test [2], in [3], in test [4], in [5], in test [6] and in test [7] was over 100 µM each time. The TGI in test [8], in [9] and in [10] was over 100 µM in each case.

For `COc1cc(C2c3cc4c(cc3[C@@H](Nc3cccc([N+](=O)[O-])c3)C3COC(=O)[C@H]23)OCO4)cc(OC)c1O` (some centres not stated), the TGI in test [1] was over 100 µM; in test [2], over 32.9 µM; in test [3], over 22.7 µM; in [4], 32.1 µM; in test [5] it was 4.02 µM; in test [7], 4.94 µM. Also, the values for the TGI in [8], in test [9] and in test [10] were 4.12 µM, 4.47 µM and over 54.2 µM, respectively.

`N#Cc1nc(CCC(c2nc(C#N)c(N)o2)N2C(=O)c3ccccc3C2=O)oc1N` (configuration not stated): the TGI in test [1], in test [3], in test [4], in test [5], in test [6] and in [7] was over 100 µM in each case. Moreover, the TGI in [8], in test [9] and in [10] was over 100 µM each time.

With `CC(C)C1CC[C@H](C)C[C@@H]1OC(=O)C(C(=O)O[C@H]1C[C@@H](C)CCC1C(C)C)C(O)[C@@H]1OC(C)(C)O[C@H]1C1COC(C)(C)O1` (some centres not stated), the TGI turned out to be 35.4 µM in test [1]; 47.2 µM in test [2]; 53 µM in test [3]; 44.6 µM in [4]; 49.5 µM in [5]; 37.8 µM in test [6]. Moreover, the figures for the TGI in test [7], in [8] and in [10] were 32.6 µM, 44.3 µM and 45.4 µM, respectively.

With `Cc1nnc(-n2c(O)cc(=O)n(-c3ccccc3)c2=S)nc1/C=C/c1ccc(N(C)C)cc1`, the TGI was over 50.6 µM in test [1]; over 80.2 µM in test [2]; 21.1 µM in test [3]; over 100 µM in test [4]; over 100 µM in test [6]; over 62.2 µM in [7]. Further, the values for the TGI in test [8], in test [9] and in [10] were 13.5 µM, over 55 µM and over 100 µM, respectively.

Take `N#Cc1ccc(Oc2nc3ccc(C(F)(F)F)cc3nc2-c2ccccc2)cc1`: the TGI came to 30.2 µM in test [1]; 34.4 µM in test [2]; 32.1 µM in [3]; 89.3 µM in test [5]; 29.7 µM in [6]; 58.2 µM in test [7]. For the same molecule, the TGI in test [8] was 28.1 µM; in [9], 31.2 µM; in [10], 37.1 µM.

`CC[C@@]12C=CC(=S)N(CCSc3ccccc3)[C@@H]1c1c(n(S(=O)(=O)c3ccc(OC)cc3)c3ccccc13)CC2`: the TGI in test [1], in test [2], in [3], in test [5], in test [6] and in test [7] was over 100 µM each time. The TGI in test [8], in test [9] and in test [10] was over 100 µM in each case.

In the case of `Oc1ccc(O)c(CNc2ccccc2)c1`, the TGI is over 100 µM in [1]; 36.4 µM in test [2]; over 100 µM in test [3]; 3.14 µM in [4]; 15.2 µM in [5]; 33.7 µM in [6]. The TGI in test [7] was 29.7 µM; in test [8], 42.2 µM; in [10], over 100 µM.
